These results are taken from PubChem BioAssay AID256 (DTP/NCI, 2004).

Each structure is given as a SMILES string. Several values for one entry are separate records, joined by “and”; a condition that tells them apart may be missing. Equal entries are not always repeated. Toxic doses and inconclusive results are not listed.

This assay has as its system CD2F1 mice, L1210 leukemia ip, survival T/C. Put plainly: NCI In Vivo Anticancer Drug Screen. Data for tumor model L1210 Leukemia (intraperitoneal) in CD2F1 (CDF1) mice. The note with it: higher = longer survival. The essentials:
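Ratio T/C, where T is the treated-group value and C the vehicle-dosed control value, from mice implanted with a transplantable tumor.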

Where [1] appears, read: endpoint: mean survival time, dose: 100.0 mg/kg/injection, schedule: Q01DX009 (ip), vehicle: saline with Tween-80.
Setting [2] is: endpoint: mean survival time, dose: 200.0 mg/kg/injection, schedule: Q01DX009 (ip), vehicle: saline with Tween-80.
Setting [3] is: endpoint: mean survival time, dose: 400.0 mg/kg/injection, schedule: Q01DX009 (ip), vehicle: saline with Tween-80.
The mark [4] stands for this setting: endpoint: mean survival time, dose: 100.0 mg/kg/injection, schedule: Q04DX003 (ip), vehicle: saline with Tween-80.
The mark [5] stands for this setting: endpoint: mean survival time, dose: 200.0 mg/kg/injection, schedule: Q04DX003 (ip), vehicle: saline with Tween-80.
Where [6] appears, read: endpoint: mean survival time, dose: 400.0 mg/kg/injection, schedule: Q04DX003 (ip), vehicle: saline with Tween-80.

With `C=C1C(=O)O[C@@H]2C[C@@]3(C)CC(=O)C=C(C)[C@@H]3C[C@H]12`, the T/C is, setting by setting: (endpoint: mean survival time, dose: 100.0 mg/kg/injection, schedule: Q01DX001 (ip), vehicle: saline with Tween-80) 101 % of control; under setting [1], 98 % of control; (endpoint: mean survival time, dose: 200.0 mg/kg/injection, schedule: Q01DX001 (ip), vehicle: saline with Tween-80) 97 % of control; under setting [2], 98 % of control; (endpoint: mean survival time, dose: 400.0 mg/kg/injection, schedule: Q01DX001 (ip), vehicle: saline with Tween-80) 101 % of control; under setting [3], 104 % of control.

On to `CN(C)C=Nc1ccc([N+](=O)[O-])cc1`, for which the T/C is 101 % of control under setting [4], 101 % of control under setting [5] and 92 % of control under setting [6].

As for `CS(=O)(=O)OC1CCS(=O)(=O)c2ccccc21` (stereo unspecified), the T/C was 97 % of control (endpoint: mean survival time, dose: 100.0 mg/kg/injection, schedule: Q01DX001 (ip), vehicle: carboxymethylcellulose (CMC)); 97 % of control (endpoint: mean survival time, dose: 200.0 mg/kg/injection, schedule: Q01DX001 (ip), vehicle: carboxymethylcellulose (CMC)); 97 % of control (endpoint: mean survival time, dose: 400.0 mg/kg/injection, schedule: Q01DX001 (ip), vehicle: carboxymethylcellulose (CMC)).

Consider `COc1ccc(P(=S)(S)c2ccc(OC)cc2)cc1`, for which the T/C reads like this: (endpoint: mean survival time, dose: 80.5 mg/kg/injection, schedule: Q01DX009 (ip), vehicle: saline with Tween-80) 95 % of control; (endpoint: mean survival time, dose: 161.0 mg/kg/injection, schedule: Q01DX009 (ip), vehicle: saline with Tween-80) 93 % of control; (endpoint: mean survival time, dose: 322.0 mg/kg/injection, schedule: Q01DX009 (ip), vehicle: saline with Tween-80) 93 % of control.

For `CCOC(=O)c1ccc(N/C(C)=C/C(=O)OC)cc1`, the T/C (endpoint: mean survival time, dose: 75.0 mg/kg/injection, schedule: Q04DX003 (ip), vehicle: saline) is 94 % of control and the T/C (endpoint: mean survival time, dose: 150.0 mg/kg/injection, schedule: Q04DX003 (ip), vehicle: saline) was 91 % of control.

Regarding `COc1ccc(/C=N/NC(=O)c2ccccc2)cc1OC`, the T/C (endpoint: mean survival time, dose: 12.5 mg/kg/injection, schedule: Q01DX009 (ip), vehicle: other) was 98 % of control; the T/C (endpoint: mean survival time, dose: 25.0 mg/kg/injection, schedule: Q01DX009 (ip), vehicle: other) is 105 % of control; the T/C (endpoint: mean survival time, dose: 50.0 mg/kg/injection, schedule: Q01DX009 (ip), vehicle: other) was 105 % of control; the T/C (endpoint: mean survival time, dose: 100.0 mg/kg/injection, schedule: Q01DX009 (ip), vehicle: other) is 107 % of control; the T/C (endpoint: mean survival time, dose: 200.0 mg/kg/injection, schedule: Q01DX009 (ip), vehicle: other) is 107 % of control.

Turning to `CC(=O)NC(CO)C1C(CO)OC(n2ccc(=O)[nH]c2=O)C1O` (stereo unspecified), the T/C is 101 % of control (endpoint: mean survival time, dose: 6.25 mg/kg/injection, schedule: Q01DX005 (ip), vehicle: water); 101 % of control (endpoint: mean survival time, dose: 12.5 mg/kg/injection, schedule: Q01DX005 (ip), vehicle: water); 98 % of control (endpoint: mean survival time, dose: 25.0 mg/kg/injection, schedule: Q01DX005 (ip), vehicle: water); 103 % of control (endpoint: mean survival time, dose: 50.0 mg/kg/injection, schedule: Q01DX005 (ip), vehicle: water); 96 % of control (endpoint: mean survival time, dose: 100.0 mg/kg/injection, schedule: Q01DX005 (ip), vehicle: water).

As to `COc1cn(C2OC(CO)C(O)C2O)c(=O)nc1N` (stereo unspecified), the T/C runs as follows: (endpoint: median survival time, dose: 25.0 mg/kg/injection, schedule: Q01DX005 (ip), vehicle: saline) 114 % of control; (endpoint: median survival time, dose: 50.0 mg/kg/injection, schedule: Q01DX005 (ip), vehicle: saline) 111 % of control; (endpoint: median survival time, dose: 100.0 mg/kg/injection, schedule: Q01DX005 (ip), vehicle: saline) 114 % of control.

As for `O=c1[nH]cnc2ccccc12`, the T/C (endpoint: mean survival time, dose: 100.0 mg/kg/injection, schedule: Q04DX002 (ip), vehicle: saline with Tween-80) is 96 % of control; the T/C (endpoint: mean survival time, dose: 200.0 mg/kg/injection, schedule: Q04DX002 (ip), vehicle: saline with Tween-80) is 101 % of control; the T/C (endpoint: mean survival time, dose: 400.0 mg/kg/injection, schedule: Q04DX002 (ip), vehicle: saline with Tween-80) is 104 % of control.

Regarding `CNC(=O)Nc1ccccc1OS(=O)(=O)N(C)C`, the T/C was 97 % of control under setting [4], 104 % of control under setting [5] and 104 % of control under setting [6].

In the case of `COc1ccc(OC)c(NC(=O)NNC(=O)c2ccc(Cl)cc2Cl)c1`, the T/C under setting [1] is 91 % of control, the T/C under setting [2] was 90 % of control and the T/C under setting [3] was 91 % of control.

Turning to `CCOC(=O)c1cc([N+](=O)[O-])cc([N+](=O)[O-])c1Sc1ncnc2nc[nH]c12`, the T/C by setting is: (endpoint: mean survival time, dose: 0.63 mg/kg/injection, schedule: Q01DX005 (ip), vehicle: other) 98 % of control; (endpoint: mean survival time, dose: 1.25 mg/kg/injection, schedule: Q01DX005 (ip), vehicle: other) 102 % of control; (endpoint: mean survival time, dose: 2.5 mg/kg/injection, schedule: Q01DX005 (ip), vehicle: other) 110 % of control; (endpoint: mean survival time, dose: 5.0 mg/kg/injection, schedule: Q01DX005 (ip), vehicle: other) 100 % of control; (endpoint: mean survival time, dose: 6.25 mg/kg/injection, schedule: Q01DX005 (ip), vehicle: other) 120 % of control; (endpoint: mean survival time, dose: 10.0 mg/kg/injection, schedule: Q01DX005 (ip), vehicle: other) 107 % of control. Moreover, the T/C (endpoint: mean survival time, dose: 18.8 mg/kg/injection, schedule: Q01DX005 (ip), vehicle: other) was 112 % of control.

Take `Fc1ccc(N2CCNCC2)cc1`: the T/C is 101 % of control (endpoint: mean survival time, dose: 12.5 mg/kg/injection, schedule: Q04DX003 (ip), vehicle: saline); 103 % of control (endpoint: mean survival time, dose: 25.0 mg/kg/injection, schedule: Q04DX003 (ip), vehicle: saline); 92 % of control (endpoint: mean survival time, dose: 50.0 mg/kg/injection, schedule: Q04DX003 (ip), vehicle: saline).

Take `CC(/C=C/C1OC(=O)C=CC1C)=C\C(C)C/C=C/C(C)=C/C(C)C(=O)C(C)C(O)C(C)C/C(C)=C/C(=O)O` (stereo unspecified): the T/C by setting is: (endpoint: median survival time, dose: 9.0 micrograms/kg/injection, schedule: Q01DX009 (ip), vehicle: saline + alcohol) 106 % of control; (endpoint: median survival time, dose: 15.0 micrograms/kg/injection, schedule: Q01DX009 (ip), vehicle: saline + alcohol) 119 % of control; (endpoint: median survival time, dose: 18.0 micrograms/kg/injection, schedule: Q01DX005 (ip), vehicle: alcohol) 110 % of control; (endpoint: median survival time, dose: 18.0 micrograms/kg/injection, schedule: Q01DX005 (ip), vehicle: saline + alcohol) 106 % of control; (endpoint: median survival time, dose: 25.0 micrograms/kg/injection, schedule: Q01DX009 (ip), vehicle: saline + alcohol) 117 % of control; (endpoint: median survival time, dose: 30.0 micrograms/kg/injection, schedule: Q01DX005 (ip), vehicle: alcohol) 110 % of control. Moreover, the T/C runs as follows: (endpoint: median survival time, dose: 30.0 micrograms/kg/injection, schedule: Q01DX005 (ip), vehicle: saline + alcohol) 107 % of control; (endpoint: median survival time, dose: 50.0 micrograms/kg/injection, schedule: Q01DX005 (ip), vehicle: alcohol) 115 % of control; (endpoint: median survival time, dose: 50.0 micrograms/kg/injection, schedule: Q01DX005 (ip), vehicle: saline + alcohol) 108 % of control; (endpoint: median survival time, dose: 83.33 micrograms/kg/injection, schedule: Q01DX005 (ip), vehicle: alcohol) 115 % of control; (endpoint: median survival time, dose: 83.33 micrograms/kg/injection, schedule: Q01DX005 (ip), vehicle: saline + alcohol) 116 % of control; (endpoint: median survival time, dose: 138.89 micrograms/kg/injection, schedule: Q01DX005 (ip), vehicle: alcohol) 122 % of control. Besides, for the setting “endpoint: median survival time, dose: 138.89 micrograms/kg/injection, schedule: Q01DX005 (ip), vehicle: saline + alcohol”, the T/C is 111 % of control.

Turning to `CC1(C)CC(NC(=O)CSc2ncnc3nc[nH]c23)CC(C)(C)N1O`, the T/C by setting is: (endpoint: mean survival time, dose: 12.5 mg/kg/injection, schedule: Q01DX005 (ip), vehicle: saline) 106 % of control; (endpoint: mean survival time, dose: 25.0 mg/kg/injection, schedule: Q01DX005 (ip), vehicle: saline) 98 % of control; (endpoint: mean survival time, dose: 50.0 mg/kg/injection, schedule: Q01DX005 (ip), vehicle: saline) 98 % of control; (endpoint: mean survival time, dose: 100.0 mg/kg/injection, schedule: Q01DX005 (ip), vehicle: saline) 98 % of control; (endpoint: mean survival time, dose: 200.0 mg/kg/injection, schedule: Q01DX005 (ip), vehicle: saline) 98 % of control.

On to `CCC1(OC(=O)CNC)C(=O)OCc2c1cc1n(c2=O)Cc2cc3ccccc3nc2-1` (stereo unspecified), for which the T/C runs as follows: (endpoint: median survival time, dose: 7.5 mg/kg/injection, schedule: Q04DX002 (ip), vehicle: saline) 124 % of control; (endpoint: median survival time, dose: 15.0 mg/kg/injection, schedule: Q04DX002 (ip), vehicle: saline) 160 % of control and 162 % of control; (endpoint: median survival time, dose: 30.0 mg/kg/injection, schedule: Q04DX002 (ip), vehicle: saline) 239 % of control; (endpoint: median survival time, dose: 60.0 mg/kg/injection, schedule: Q04DX002 (ip), vehicle: saline) 108 % of control.
